Assay results as given in patent publication US5789431A, “Naphthoquinone antitumor compound and method” (The University of North Carolina at Chapel Hill, priority 1996, dated 1998).

How the values were obtained:
MCF7/ADR-RES = assay: in vitro breast cancer cell growth inhibition (NCI screen)
IGROV1 = assay: in vitro ovarian cancer cell growth inhibition (NCI screen)
NCI-H266 = assay: in vitro non-small cell lung cancer cell growth inhibition (NCI screen)
human tumor cell lines = assay type: cell-based; settings: for GI50: Homo sapiens, cancer cell panel, general / most cell lines, read-out: logGI50 values in the cancer cell line panel (converted)
UACC-62 = assay: in vitro melanoma cell growth inhibition (NCI screen)
ACHN = assay: in vitro renal cancer cell growth inhibition (NCI screen)
MDA-N = assay: in vitro breast cancer cell growth inhibition (NCI screen)
MALME-3M = assay: in vitro melanoma cell growth inhibition (NCI screen)
HOP-92 = assay: in vitro non-small cell lung cancer cell growth inhibition (NCI screen)
MOLT-4 = assay: in vitro leukemia cell growth inhibition (NCI screen)
PC-3 = assay: in vitro prostate cancer cell growth inhibition (NCI screen)
TK-10 = assay: in vitro renal cancer cell growth inhibition (NCI screen)
OVCAR-3 = assay: in vitro ovarian cancer cell growth inhibition (NCI screen)
SW 620 = assay: in vitro colon cancer cell growth inhibition (NCI screen)
T-47D = assay: in vitro breast cancer cell growth inhibition (NCI screen)
K-562 = assay: in vitro leukemia cell growth inhibition (NCI screen)
NCI-H23 = assay: in vitro non-small cell lung cancer cell growth inhibition (NCI screen)
BT-549 = assay: in vitro breast cancer cell growth inhibition (NCI screen)
HCT-116 = assay: in vitro colon cancer cell growth inhibition (NCI screen)
HCT-15 = assay: as above
NCI-H522 = assay: in vitro non-small cell lung cancer cell growth inhibition (NCI screen)
MCF-7 = assay: in vitro breast cancer cell growth inhibition (NCI screen)
MDA-MB-435 = assay: as above
COLO-205 = assay: in vitro colon cancer cell growth inhibition (NCI screen)
RXF-393 = assay: in vitro renal cancer cell growth inhibition (NCI screen)
NCI-H460 = assay: in vitro non-small cell lung cancer cell growth inhibition (NCI screen)
UACC-257 = assay: in vitro melanoma cell growth inhibition (NCI screen)
SN12C = assay: in vitro renal cancer cell growth inhibition (NCI screen)
M19-MEL = assay: in vitro melanoma cell growth inhibition (NCI screen)
OVCAR-4 = assay: in vitro ovarian cancer cell growth inhibition (NCI screen); settings: OVACR-4
SK-MEL-5 = assay: in vitro melanoma cell growth inhibition (NCI screen)
LOX1MVI = assay: as above
U 251 = assay: in vitro CNS cancer cell growth inhibition (NCI screen)
SF-539 = assay: as above
HL-60(TB) = assay: in vitro leukemia cell growth inhibition (NCI screen)
SK-MEL-28 = assay: in vitro melanoma cell growth inhibition (NCI screen)
KM 12 = assay: in vitro colon cancer cell growth inhibition (NCI screen)
RPMI-8226 = assay: in vitro leukemia cell growth inhibition (NCI screen)
M14 = assay: in vitro melanoma cell growth inhibition (NCI screen)
CCRF-CEM = assay: in vitro leukemia cell growth inhibition (NCI screen)
SR = assay: as above

Row | Structure (SMILES) | cytotoxicity log GI50 (MCF7/ADR-RES) [M] | cytotoxicity log GI50 (UACC-62) [M] | cytotoxicity log GI50 (ACHN) [M] | cytotoxicity log GI50 (MALME-3M) [M] | cytotoxicity log GI50 (HOP-92) [M] | cytotoxicity log GI50 (PC-3) [M] | cytotoxicity log GI50 (OVCAR-3) [M] | cytotoxicity log GI50 (SW 620) [M] | cytotoxicity log GI50 (T-47D) [M] | cytotoxicity log GI50 (K-562) [M] | cytotoxicity log GI50 (NCI-H23) [M] | cytotoxicity log GI50 (BT-549) [M] | cytotoxicity log GI50 (HCT-116) [M] | cytotoxicity log GI50 (HCT-15) [M] | cytotoxicity log GI50 (NCI-H522) [M] | cytotoxicity log GI50 (COLO-205) [M] | cytotoxicity log GI50 (RXF-393) [M] | cytotoxicity log GI50 (UACC-257) [M] | cytotoxicity log GI50 (SK-MEL-5) [M] | cytotoxicity log GI50 (HL-60(TB)) [M] | other results
1 | O=C(NC1=C(Cl)C(=O)c2ccccc2C1=O)c1ccccc1 [Compound 2e, 2-Benzoylamino-3-chloro-1,4-naphthoquinone] | -4.73 | -4.62 | -4.68 | -4.77 | -4.60 | -4.60 | -4.72 | -4.76 | -4.66 | -4.66 | -4.62 | -4.70 | -4.76 | -4.60 | -4.62 | -4.81 | -4.72 |  |  |  | cytotoxicity log GI50 (IGROV1): -4.66 M; cytotoxicity log GI50 (NCI-H266): -4.61 M; GI50 (human tumor cell lines): 10 to 100 µM; cytotoxicity log GI50 (MDA-N): -5.30 M; cytotoxicity log GI50 (MOLT-4): -4.70 M; cytotoxicity log GI50 (TK-10): -4.64 M; cytotoxicity log GI50 (MCF-7): -4.72 M; cytotoxicity log GI50 (MDA-MB-435): -4.72 M
2 | CC(=O)NC1=C(NCCN(C)C)C(=O)c2ccccc2C1=O [Compound 39] |  | -4.98 |  | -5.12 |  |  |  |  |  | -4.91 | -4.94 |  | -5.08 | -5.02 | -4.99 | -5.00 |  | -5.03 | -5.14 | -5.01 | cytotoxicity log GI50 (NCI-H460): -4.89 M; cytotoxicity log GI50 (SN12C): -4.98 M; cytotoxicity log GI50 (M19-MEL): -5.12 M; cytotoxicity log GI50 (OVCAR-4): -5.05 M; cytotoxicity log GI50 (LOX1MVI): -4.90 M; cytotoxicity log GI50 (U 251): -4.99 M; cytotoxicity log GI50 (SF-539): -4.93 M
3 | COc1ccc(C(=O)NC2=C(Cl)C(=O)c3ccccc3C2=O)cc1 [Compound 2g] | -5.85 | -6.12 | -6.44 | -5.92 | -5.82 | -5.90 | -5.79 | -6.17 | -5.90 | -5.85 |  | -5.77 | -6.36 | -6.37 | -6.42 | -5.76 | -6.23 | -5.79 | -5.89 | -6.35 | cytotoxicity log GI50 (NCI-H266): -5.87 M; cytotoxicity log GI50 (SK-MEL-28): -6.17 M; GI50 (human tumor cell lines): ~1 µM; cytotoxicity log GI50 (KM 12): -5.82 M; cytotoxicity log GI50 (RPMI-8226): -6.02 M; cytotoxicity log GI50 (M14): -6.20 M; cytotoxicity log GI50 (U 251): -5.83 M; cytotoxicity log GI50 (CCRF-CEM): -6.10 M
4 | COc1ccc(-n2c(CCCC(=O)O)nc3c2C(=O)c2ccccc2C3=O)cc1 [Compound 59] |  | -4.63 |  | -4.82 | -4.69 |  | -4.48 |  |  |  | -4.36 | -5.06 | -4.44 | -4.35 | -4.59 | -4.43 |  | -4.56 |  | -4.51 | cytotoxicity log GI50 (MDA-N): -4.50 M; cytotoxicity log GI50 (RPMI-8226): -4.44 M; cytotoxicity log GI50 (M14): -4.81 M; cytotoxicity log GI50 (MCF-7): -4.49 M; cytotoxicity log GI50 (MDA-MB-435): -4.58 M; cytotoxicity log GI50 (CCRF-CEM): -4.44 M
5 | COc1cc(OC)cc(C(=O)NC2=C(Cl)C(=O)c3ccccc3C2=O)c1 [Compound 2h] | -5.83 | -6.82 | -6.39 |  |  | -6.24 |  | -6.24 | -5.85 | -6.39 |  | -5.81 | -6.35 | -6.38 | -6.49 |  | -6.28 |  | -5.89 | -7.04 | cytotoxicity log GI50 (IGROV1): -5.86 M; cytotoxicity log GI50 (SK-MEL-28): -5.85 M; cytotoxicity against tumor cells (in words) (human tumor cell lines; cancer cell line panel): similarly potent cytotoxic activity; cytotoxicity log GI50 (SR): -6.33 M; cytotoxicity log GI50 (KM 12): -5.92 M; cytotoxicity log GI50 (RPMI-8226): -6.31 M; cytotoxicity log GI50 (M14): -6.26 M; cytotoxicity log GI50 (CCRF-CEM): -6.70 M
